Test results published in the supplement of paper PMC10307832.

Experiments:
Experiment in all cases: relative viability (nuclei count vs DMSO), 5 days (fraction); higher = more cells survive
COR-L23 = test system: COR-L23
How it was run: (§1)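 Lung cancer cell lines in 1536-well plates were dosed by pin tool the day after seeding, either with one drug alone or with a fixed anchor-drug dose plus five library-drug doses (not always all listed) in √10 steps. After 5 days, cells were fixed and their nuclei stained in one step (final 0.05% Triton X-100, 1% formaldehyde, 1 ug/ml Hoechst), then counted on 4× images. Relative viability is the nuclei count in treated wells divided by that in vehicle wells. Values are medians of duplicate plates.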

NCI-H1975 = test system: NCI-H1975
How it was run: as §1

201T = test system: 201T
How it was run: as §1

HCC-827 = test system: HCC-827
How it was run: as §1

HCC-15 = test system: HCC-15
How it was run: as §1

EKVX = test system: EKVX
How it was run: as §1

NCI-H596 = test system: NCI-H596
How it was run: as §1

NCI-H1437 = test system: NCI-H1437
How it was run: as §1

NCI-H441 = test system: NCI-H441
How it was run: as §1

NCI-H1792 = test system: NCI-H1792
How it was run: as §1

NCI-H838 = test system: NCI-H838
How it was run: as §1

NCI-H650 = test system: NCI-H650
How it was run: as §1

In the case of COc1cc(N2CCC(C(N)=O)CC2)ccc1Nc1nc(N)c(Cl)c(Nc2ccccc2S(=O)(=O)C(C)C)n1 [HG-5-88-01] + O=C(c1cc(Cc2n[nH]c(=O)c3ccccc23)ccc1F)N1CCN(C(=O)C2CC2)CC1 [Olaparib] (partner 8 µM), the relative viability (COR-L23; first compound 0.04 µM) is reported as 0.336, the relative viability (COR-L23; first compound 0.1265 µM) is reported as 0.386 and the relative viability (COR-L23; first compound 0.4 µM) is reported as 0.28. The relative viability (COR-L23; first compound 1.265 µM) was 0.319, the relative viability (COR-L23; first compound 4 µM) was 0.246 and the relative viability (NCI-H1975; first compound 0.04 µM) was 0.834. It also gave a relative viability (NCI-H1975; first compound 0.1265 µM) of 0.822, a relative viability (NCI-H1975; first compound 0.4 µM) of 0.782 and a relative viability (NCI-H1975; first compound 1.265 µM) of 0.715. For the same compound, the relative viability (NCI-H1975; first compound 4 µM) was 0.419, the relative viability (201T; first compound 0.04 µM) was 0.841 and the relative viability (201T; first compound 0.1265 µM) was 0.844. It also gave a relative viability (201T; first compound 1.265 µM) of 0.795, a relative viability (201T; first compound 4 µM) of 0.831 and a relative viability (HCC-827; first compound 0.04 µM) of 0.695. The relative viability (HCC-827; first compound 0.1265 µM) was 0.676, the relative viability (HCC-827; first compound 0.4 µM) was 0.363 and the relative viability (HCC-827; first compound 1.265 µM) was 0.203. The relative viability (HCC-827; first compound 4 µM) was 0.24, the relative viability (HCC-15; first compound 0.04 µM) was 0.738 and the relative viability (HCC-15; first compound 0.1265 µM) was 0.616. For the same compound, the relative viability (HCC-15; first compound 0.4 µM) was 0.883, the relative viability (HCC-15; first compound 1.265 µM) was 0.707 and the relative viability (HCC-15; first compound 4 µM) was 0.7. For the same compound, the relative viability (EKVX; first compound 0.04 µM) was 0.896, the relative viability (EKVX; first compound 0.1265 µM) was 0.955 and the relative viability (EKVX; first compound 0.4 µM) was 0.813. The relative viability (EKVX; first compound 4 µM) was 0.633, the relative viability (NCI-H596; first compound 0.04 µM) was 0.729 and the relative viability (NCI-H596; first compound 0.1265 µM) was 0.734. It also gave a relative viability (NCI-H596; first compound 0.4 µM) of 0.682, a relative viability (NCI-H596; first compound 1.265 µM) of 0.777 and a relative viability (NCI-H596; first compound 4 µM) of 0.694. It also gave a relative viability (NCI-H1437; first compound 0.04 µM) of 0.645, a relative viability (NCI-H1437; first compound 0.1265 µM) of 0.609 and a relative viability (NCI-H1437; first compound 0.4 µM) of 0.607. It also gave a relative viability (NCI-H1437; first compound 1.265 µM) of 0.631, a relative viability (NCI-H1437; first compound 4 µM) of 0.557 and a relative viability (NCI-H441; first compound 0.04 µM) of 0.557. It also gave a relative viability (NCI-H441; first compound 0.1265 µM) of 0.639, a relative viability (NCI-H441; first compound 0.4 µM) of 0.701 and a relative viability (NCI-H441; first compound 1.265 µM) of 0.574. The relative viability (NCI-H441; first compound 4 µM) was 0.434, the relative viability (NCI-H1792; first compound 0.04 µM) was 0.513 and the relative viability (NCI-H1792; first compound 0.1265 µM) was 0.424. For the same compound, the relative viability (NCI-H1792; first compound 0.4 µM) was 0.434, the relative viability (NCI-H1792; first compound 1.265 µM) was 0.397 and the relative viability (NCI-H1792; first compound 4 µM) was 0.484. The relative viability (NCI-H838; first compound 0.04 µM) was 0.793, the relative viability (NCI-H838; first compound 0.1265 µM) was 0.766 and the relative viability (NCI-H838; first compound 0.4 µM) was 0.67. It also gave a relative viability (NCI-H838; first compound 1.265 µM) of 0.557, a relative viability (NCI-H838; first compound 4 µM) of 0.452 and a relative viability (NCI-H650; first compound 0.04 µM) of 0.423. The relative viability (NCI-H650; first compound 0.1265 µM) was 0.366, the relative viability (NCI-H650; first compound 0.4 µM) was 0.408 and the relative viability (NCI-H650; first compound 1.265 µM) was 0.321. It also gave a relative viability (NCI-H650; first compound 4 µM) of 0.239.
